From ChEMBL document CHEMBL1201862, “PubChem BioAssay data set” (2004)
Activity calls are given as the source filed them.

Key:
[1] = test system: Streptococcus sp. 'group A'; experiment: growth inhibition of control SK(-) GAS strain, dose response, counter-screen for streptokinase expression inhibitor project, luminescence, kanamycin, BacTiterGlo, confirmation (AID 1900); type: functional, organism-based
[2] = target: T1, Streptokinase A (Streptococcus pyogenes serotype M1, UniProt P10520); experiment: S. pyogenes streptokinase expression inhibitors, potency, dose response, plasminogen activation absorbance, OD405 (AID 1914); type: functional, Streptococcus pyogenes M1 GAS;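 note: secreted streptokinase activity via plasminogen activation per viability signal from cell pellet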
T1 sequence (P10520 whole entry): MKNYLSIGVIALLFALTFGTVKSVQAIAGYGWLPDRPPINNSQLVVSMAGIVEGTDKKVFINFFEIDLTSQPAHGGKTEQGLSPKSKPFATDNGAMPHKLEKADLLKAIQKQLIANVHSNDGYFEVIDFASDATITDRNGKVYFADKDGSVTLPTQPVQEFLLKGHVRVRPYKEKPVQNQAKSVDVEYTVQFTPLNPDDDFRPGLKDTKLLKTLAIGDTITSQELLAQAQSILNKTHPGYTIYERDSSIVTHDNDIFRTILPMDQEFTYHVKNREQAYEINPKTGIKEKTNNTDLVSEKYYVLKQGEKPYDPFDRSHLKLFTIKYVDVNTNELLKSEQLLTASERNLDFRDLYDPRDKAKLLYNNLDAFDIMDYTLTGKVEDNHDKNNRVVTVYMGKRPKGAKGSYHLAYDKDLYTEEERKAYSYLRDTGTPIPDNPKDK

[3] = test system: Streptococcus; experiment: Group A Streptococcus viability loss, dose response, counter-screen for streptokinase expression inhibitor project, luminescence, BacTiterGlo (AID 1915); type: functional, organism-based;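 note: potency for reduction of bacterial viability or growth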
[4] = HepG2 hepatoma cell cytotoxicity, dose response, cytotoxicity control, CellTiter-Glo luminescence, dry powder, set 3 (AID 720594); type: functional, cell-based
[5] = HEK293T cell cytotoxicity, dose response, cytotoxicity control, CellTiter-Glo luminescence, dry powder, set 2 (AID 720595); type: functional, cell-based; conditions: HEK293
[6] = AlphaScreen signal interference by compounds, dose response, artefact control for ARNT/TACC3 disruptor project, biochemical, dual-tagged ARNT, dry powder (AID 720564)
[7] = P. falciparum 3D7-ScDHODH growth inhibitors, dose response, SYBR Green, dry powder samples (AID 1159570); type: functional, cell-based;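 note: parasite growth measured after 72 hours of compound exposure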
[8] = HepG2 cell cytotoxicity, dose response, cytotoxicity control, plate reader, dry powder samples (AID 1159569); type: functional, cell-based;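 note: inhibitor potency with signal falling toward the positive control level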
[9] = P. falciparum Dd2 growth inhibitors, dose response, SYBR Green, dry powder samples, set 4 (AID 1159572); type: functional, cell-based
[10] = P. falciparum Dd2 growth inhibitors, dose response, SYBR Green, cherry-picked samples (AID 1159567); type: functional, cell-based
[11] = P. falciparum Dd2 blood-stage growth inhibition, dose response, SYBR Green fluorescence, erythrocytes, dry powder, set 2 (AID 1159574); type: functional, cell-based
[12] = P. falciparum Dd2 growth inhibitors, dose response, SYBR Green, dry powder samples (AID 1159566); type: functional, cell-based;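 note: potency for growth inhibition with lower SYBR green DNA signal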
[13] = HepG2 cell cytotoxicity, dose response, cytotoxicity control, cherry-picked samples (AID 1159577); type: functional, cell-based
[14] = P. falciparum ATP4 D1247Y mutant growth inhibitors, dose response, NITD609-resistant line, SYBR Green, dry powder (AID 1159571); type: functional, cell-based;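 note: parasites synchronized at ring stage by sorbitol before testing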
[15] = target: T2, Bcl-2-related protein A1 (Mus musculus, UniProt Q07440); experiment: Bfl-1 inhibitors, primary screen, biochemical, fluorescence polarization, FITC-Bid, mouse (AID 432)
T2 sequence (Q07440 whole entry): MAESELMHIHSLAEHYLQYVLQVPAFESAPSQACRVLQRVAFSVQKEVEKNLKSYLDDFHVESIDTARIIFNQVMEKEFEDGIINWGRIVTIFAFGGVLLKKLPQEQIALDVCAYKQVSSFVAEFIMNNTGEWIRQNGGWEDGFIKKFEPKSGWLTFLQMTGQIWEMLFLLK

[16] = target: T3, SUMO-activating enzyme (Homo sapiens, UniProt Q9UBT2); experiment: SUMOylation inhibitor hit validation, confirmation, SUMOylation inhibitor project, biochemical, AlphaScreen (AID 2018); type: functional
[17] = target: T3, SUMO-activating enzyme; experiment: inhibitors of in vitro SUMOylation cascade, primary screen, biochemical, HTRF, uHTS (AID 2006); type: protein-complex assay
[18] = target: T2, Bcl-2-related protein A1; experiment: Bfl-1 inhibitors blocking BH3 peptide binding, confirmation, biochemical, TR-FRET, mouse Bfl-1 (AID 621);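 note: TR-FRET binding of GST-Bfl-1 to FITC-labelled Bid peptide via terbium antibody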
[19] = target: T4, Replicative DNA helicase DnaB (Mycobacterium tuberculosis, UniProt P9WMR3); experiment: DnaB intein splicing inhibitors, dose response, biochemical, cell-free fluorescence (AID 449749); type: functional
T4 sequence (P9WMR3 whole entry): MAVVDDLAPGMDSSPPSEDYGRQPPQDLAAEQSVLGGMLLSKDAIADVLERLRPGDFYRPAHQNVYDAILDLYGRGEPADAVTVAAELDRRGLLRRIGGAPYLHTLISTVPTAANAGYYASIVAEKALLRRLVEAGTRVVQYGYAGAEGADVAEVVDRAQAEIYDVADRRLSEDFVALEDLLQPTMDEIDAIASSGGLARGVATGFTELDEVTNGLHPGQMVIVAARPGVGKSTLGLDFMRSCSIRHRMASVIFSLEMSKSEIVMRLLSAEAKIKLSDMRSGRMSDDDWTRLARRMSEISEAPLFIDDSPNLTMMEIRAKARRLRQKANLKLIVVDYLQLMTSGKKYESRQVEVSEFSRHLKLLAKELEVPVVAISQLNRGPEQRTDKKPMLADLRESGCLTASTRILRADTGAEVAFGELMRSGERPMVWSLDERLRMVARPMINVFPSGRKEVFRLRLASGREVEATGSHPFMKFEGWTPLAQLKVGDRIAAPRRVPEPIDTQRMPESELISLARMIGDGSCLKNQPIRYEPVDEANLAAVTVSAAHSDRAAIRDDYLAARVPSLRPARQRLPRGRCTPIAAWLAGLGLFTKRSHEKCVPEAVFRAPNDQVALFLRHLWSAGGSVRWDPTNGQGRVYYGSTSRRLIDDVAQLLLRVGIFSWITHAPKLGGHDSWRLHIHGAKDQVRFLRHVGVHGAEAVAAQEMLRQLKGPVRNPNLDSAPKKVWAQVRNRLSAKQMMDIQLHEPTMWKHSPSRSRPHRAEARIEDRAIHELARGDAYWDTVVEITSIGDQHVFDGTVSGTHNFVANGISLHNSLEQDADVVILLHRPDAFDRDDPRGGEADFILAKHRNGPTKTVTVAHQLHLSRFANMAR

[20] = target: T5, Protein RecA (Mycobacterium tuberculosis, UniProt P9WHJ3); experiment: Fluorescence Cell-Free Homogeneous Dose Retest to Identify Inhibitors of RecA-Intein Splicing Activity. [Related pubchem assays (depositor defined):AID2097, AID2223, AID489010, AID492950]; type: functional
T5 sequence (P9WHJ3 whole entry): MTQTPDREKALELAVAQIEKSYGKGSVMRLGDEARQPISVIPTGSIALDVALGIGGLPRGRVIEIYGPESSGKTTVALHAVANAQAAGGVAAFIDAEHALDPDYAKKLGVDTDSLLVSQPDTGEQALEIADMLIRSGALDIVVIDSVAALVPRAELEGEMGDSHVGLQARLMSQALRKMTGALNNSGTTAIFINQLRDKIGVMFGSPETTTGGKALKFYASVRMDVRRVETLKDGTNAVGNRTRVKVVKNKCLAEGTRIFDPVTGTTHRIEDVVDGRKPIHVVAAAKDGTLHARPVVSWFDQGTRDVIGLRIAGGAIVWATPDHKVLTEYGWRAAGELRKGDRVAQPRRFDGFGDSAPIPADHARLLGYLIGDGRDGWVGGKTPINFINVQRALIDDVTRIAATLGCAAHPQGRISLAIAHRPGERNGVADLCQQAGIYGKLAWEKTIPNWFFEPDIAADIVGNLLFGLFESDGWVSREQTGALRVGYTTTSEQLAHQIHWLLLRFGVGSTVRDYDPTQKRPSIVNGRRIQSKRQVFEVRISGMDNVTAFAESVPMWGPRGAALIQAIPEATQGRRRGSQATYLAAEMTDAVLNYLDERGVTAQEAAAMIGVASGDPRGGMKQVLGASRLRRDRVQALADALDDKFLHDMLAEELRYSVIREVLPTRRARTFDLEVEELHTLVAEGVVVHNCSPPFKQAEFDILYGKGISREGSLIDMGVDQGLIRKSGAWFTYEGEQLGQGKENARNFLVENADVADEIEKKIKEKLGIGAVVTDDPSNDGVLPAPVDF

[21] = target: fMet-Leu-Phe receptor (Homo sapiens, UniProt P21462); experiment: FPR ligands, dose response (AID 519); type: functional
[22] = target: T6, Tyrosine-protein phosphatase non-receptor type 7 (Homo sapiens, UniProt P35236); experiment: inhibitors of human HePTP phosphatase, […], biochemical, absorbance, leukemia target (AID 521); type: functional
T6 sequence (P35236 whole entry): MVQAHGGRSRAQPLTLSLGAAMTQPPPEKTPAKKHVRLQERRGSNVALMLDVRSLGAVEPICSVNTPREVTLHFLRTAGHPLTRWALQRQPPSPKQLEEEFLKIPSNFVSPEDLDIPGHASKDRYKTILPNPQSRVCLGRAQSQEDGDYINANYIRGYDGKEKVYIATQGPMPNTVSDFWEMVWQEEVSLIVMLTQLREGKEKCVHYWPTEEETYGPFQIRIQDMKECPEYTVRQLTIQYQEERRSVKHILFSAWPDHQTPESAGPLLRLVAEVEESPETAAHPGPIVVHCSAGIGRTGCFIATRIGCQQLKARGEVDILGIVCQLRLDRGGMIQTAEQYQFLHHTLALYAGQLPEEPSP

[23] = P. falciparum Dd2 growth inhibitors, dose response, SYBR Green, dry powder samples, set 9 (AID 1159568); type: functional, cell-based
[24] = Luminescence-based cell-based high throughput dose response assay to identify activators of the DAF-12 from the parasite S. stercoralis (ssDAF-12).; type: functional
[25] = target: Oxysterols receptor LXR-beta (Homo sapiens, UniProt P55055); experiment: LXR agonists, Gal4 luciferase reporter, dose response, counter-screen for ssDAF-12 agonist project, cell-based, luminescence, HEK293, S. stercoralis campaign (AID 720737); type: functional; conditions: read-out: IC50 (the source's name)
Oxysterols receptor LXR-beta, sequence (P55055 whole entry, the tested form may be a part): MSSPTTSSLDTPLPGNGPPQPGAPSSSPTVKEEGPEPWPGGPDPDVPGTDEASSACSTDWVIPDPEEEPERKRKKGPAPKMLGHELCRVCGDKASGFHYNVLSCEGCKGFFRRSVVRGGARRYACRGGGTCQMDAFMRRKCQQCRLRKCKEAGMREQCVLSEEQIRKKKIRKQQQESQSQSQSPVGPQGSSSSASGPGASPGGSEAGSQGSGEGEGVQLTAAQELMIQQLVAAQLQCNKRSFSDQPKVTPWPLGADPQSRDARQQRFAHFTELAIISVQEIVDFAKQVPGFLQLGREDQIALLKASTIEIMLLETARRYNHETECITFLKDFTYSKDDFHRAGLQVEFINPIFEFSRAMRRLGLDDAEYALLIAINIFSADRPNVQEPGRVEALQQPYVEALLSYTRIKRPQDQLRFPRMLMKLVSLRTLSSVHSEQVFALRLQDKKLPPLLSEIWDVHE

T3 sequence (Q9UBE0 whole entry): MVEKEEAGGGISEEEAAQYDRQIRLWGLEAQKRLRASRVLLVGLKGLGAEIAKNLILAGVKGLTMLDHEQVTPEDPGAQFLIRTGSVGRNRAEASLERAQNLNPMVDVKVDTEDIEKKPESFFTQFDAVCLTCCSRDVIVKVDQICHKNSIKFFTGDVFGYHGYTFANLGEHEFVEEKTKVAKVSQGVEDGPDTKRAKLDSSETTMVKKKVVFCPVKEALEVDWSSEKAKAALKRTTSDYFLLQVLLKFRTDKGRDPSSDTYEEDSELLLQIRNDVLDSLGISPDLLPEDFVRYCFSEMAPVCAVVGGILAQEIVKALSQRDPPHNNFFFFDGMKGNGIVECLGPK
T3 sequence (Q9UBT2 whole entry): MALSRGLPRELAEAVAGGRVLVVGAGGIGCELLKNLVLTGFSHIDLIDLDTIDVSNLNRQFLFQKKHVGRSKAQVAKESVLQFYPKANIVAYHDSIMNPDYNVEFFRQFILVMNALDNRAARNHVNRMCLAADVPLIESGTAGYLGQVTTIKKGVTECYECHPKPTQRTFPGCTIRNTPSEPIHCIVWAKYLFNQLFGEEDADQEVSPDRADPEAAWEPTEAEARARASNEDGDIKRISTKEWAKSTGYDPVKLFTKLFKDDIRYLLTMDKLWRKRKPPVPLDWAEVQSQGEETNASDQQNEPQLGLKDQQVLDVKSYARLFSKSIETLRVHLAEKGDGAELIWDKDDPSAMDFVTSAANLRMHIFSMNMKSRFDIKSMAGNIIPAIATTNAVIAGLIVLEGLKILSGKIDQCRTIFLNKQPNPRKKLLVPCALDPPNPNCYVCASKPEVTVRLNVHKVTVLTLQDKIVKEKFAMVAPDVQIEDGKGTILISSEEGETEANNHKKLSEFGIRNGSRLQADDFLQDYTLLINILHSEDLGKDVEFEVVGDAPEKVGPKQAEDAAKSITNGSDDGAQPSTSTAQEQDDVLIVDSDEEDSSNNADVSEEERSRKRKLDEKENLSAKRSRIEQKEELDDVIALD
fMet-Leu-Phe receptor, sequence (P21462 whole entry): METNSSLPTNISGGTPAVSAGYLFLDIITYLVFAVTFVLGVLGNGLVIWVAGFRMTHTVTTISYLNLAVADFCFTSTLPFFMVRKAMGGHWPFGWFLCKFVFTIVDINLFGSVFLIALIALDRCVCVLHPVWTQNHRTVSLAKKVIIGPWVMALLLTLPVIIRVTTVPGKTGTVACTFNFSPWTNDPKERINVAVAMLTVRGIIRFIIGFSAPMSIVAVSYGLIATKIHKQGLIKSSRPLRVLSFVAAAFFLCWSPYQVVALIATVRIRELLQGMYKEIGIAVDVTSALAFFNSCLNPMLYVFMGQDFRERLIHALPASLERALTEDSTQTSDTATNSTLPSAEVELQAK

Question: What does the source list for CC1CCCN(S(=O)(=O)c2ccc(C(=O)Nc3nnc(C4=COCCO4)o3)cc2)C1 (stereo not given)?
Answer: EC50 [1]: 4.77 µM (active); EC50 [2]: > 150 µM (not active); EC50 [3]: 98.4 µM (active); AC50 [4]: > 52 µM (inactive); AC50 [5]: 27.6 µM (active); AC50 [6]: 101 µM (active)

Question: With COc1ccc2c3c([nH]c2c1)[C@H](CO)N(C(C)=O)CC31CCN(C(=O)Nc2ccccc2F)CC1 as the compound, how does the AC50 [7] read?
Answer: 0.0263 µM (active)

Question: And the AC50 [8]?
Answer: 46.9 µM (active)

Question: What about the AC50 [9] of the same compound?
Answer: 0.101 µM (active)

Question: What about the AC50 [10] of the same compound?
Answer: < 0.3 µM (active)

Question: What about the AC50 [11] of the same compound?
Answer: 0.0828 µM (active)

Question: What about the AC50 [12] of the same compound?
Answer: 0.0279 µM (active)

Question: And the AC50 [13]?
Answer: 33.4 µM (active)

Question: And the AC50 [14]?
Answer: 0.0166 µM (active)

Question: Which IC50 [15] does the source give for Cc1ccccc1Nc1cc2ccccc2c(O)n1 here?
Answer: 22.4 µM (active)

Question: And the IC50 [16]?
Answer: 1.84 µM (active)

Question: And the IC50 [17]?
Answer: 4.3 µM (active)

Question: And the IC50 [18]?
Answer: > 100 µM (not active)

Question: And the AC50 [19]?
Answer: 41.9 µM (inconclusive)

Question: And the EC50 [20]?
Answer: 0.616 µM (active)

Question: What about the Ki [21] of the same compound?
Answer: > 66.7 µM (inactive)

Question: For CCC(=O)Nc1c(C#N)c2nc3ccccc3nc2n1-c1ccc(C)cc1, which IC50 [22] is on record?
Answer: > 100 µM (not active)

Question: With C[C@@H]1CCCCO[C@H](CN(C)S(=O)(=O)c2ccccc2)[C@@H](C)CN([C@H](C)CO)C(=O)c2cc(NC(=O)Nc3ccc4c(c3)OCO4)ccc2O1 as the compound, how does the AC50 [23] read?
Answer: 8.49 µM (active)

Question: With COCCNC(=O)Cn1nc(-c2ccc(Cl)cc2)c2ccccc2c1=O as the compound, how does the IC50 [24] read?
Answer: > 67.5 µM (inactive)

Question: And the EC50 [25]?
Answer: > 67.5 µM (inactive)
